From ChEMBL document CHEMBL3425406, “Design, Synthesis, and Evaluation of Tetrasubstituted Pyridines as Potent 5-HT2C Receptor Agonists” (ACS Med Chem Lett, 2015)
pEC50: −log10 of the molar value.

How the values were obtained:
[1] = Lipophilicity, log D of the compound; format: physicochemical; settings: octanol/water
[2] = molecular target: T1, 5-hydroxytryptamine receptor 2B (Homo sapiens, UniProt P41595); experiment: Agonist activity at human recombinant 5-HT2B receptor expressed in CHOK1 cells assessed as induction of Ca2+ mobilization after 1 hr by FLIPR assay; format: functional, cell-based, CHO-K1
T1 sequence (P41595 whole entry): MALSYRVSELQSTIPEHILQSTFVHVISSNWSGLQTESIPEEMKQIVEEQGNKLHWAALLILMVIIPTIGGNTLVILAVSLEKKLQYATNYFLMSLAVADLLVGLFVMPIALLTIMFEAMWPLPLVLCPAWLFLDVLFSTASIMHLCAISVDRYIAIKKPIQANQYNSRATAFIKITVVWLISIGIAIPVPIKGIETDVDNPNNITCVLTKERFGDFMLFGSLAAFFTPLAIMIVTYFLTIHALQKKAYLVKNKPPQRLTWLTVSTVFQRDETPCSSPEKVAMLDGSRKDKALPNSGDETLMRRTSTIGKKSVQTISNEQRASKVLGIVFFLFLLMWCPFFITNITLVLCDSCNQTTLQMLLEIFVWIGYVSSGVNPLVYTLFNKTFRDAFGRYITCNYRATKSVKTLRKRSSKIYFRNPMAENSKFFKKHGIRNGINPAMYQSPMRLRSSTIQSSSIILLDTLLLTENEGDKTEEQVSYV

[3] = molecular target: T1, 5-hydroxytryptamine receptor 2B; experiment: Agonist activity at human recombinant 5-HT2B receptor expressed in CHOK1 cells assessed as induction of Ca2+ mobilization at 30 uM after 1 hr by FLIPR assay relative to 5-HT; format: functional, cell-based; settings: CHO-K1
[4] = Permeability across dog RRCK cells; format: ADME, cell-based, Canis lupus familiaris, MDCKII-LE; settings: MDCK, read-out: permeability
[5] = tested on: MDR1; experiment: Apparent permeability across apical to basolateral side in MDCK cells expressing MDR1; format: ADME, cell-based, Canis lupus familiaris; settings: dog
[6] = tested on: MDR1; experiment: Efflux ratio of apparent permeability across basolateral to apical over apical to basolateral side in MDCK cells expressing MDR1; format: ADME, cell-based, Canis lupus familiaris; settings: dog
[7] = molecular target: T1, 5-hydroxytryptamine receptor 2B; experiment: Inhibition of Cy3B conjugated serotonin analogue binding to human recombinant 5-HT2B receptor expressed in CHOK1 cells after 60 mins by fluorescence polarization assay; format: cell-based; settings: CHO-K1

Row | SMILES | logD [1] | pEC50 [2] | Emax [3] [%] | Papp [4] [×10⁻⁶ cm/s] | Papp A→B [5] [×10⁻⁶ cm/s] | efflux ratio [6] | Kb [7] [nM]
1 | CC(C)CNc1nc(Cc2ccccc2)cc2c1CCNCC2 | 1.7 | – | – | – | – | – | –
2 | c1ccc(CNc2nc(Cc3ccccc3)cc3c2CCNCC3)cc1 | 1.7 | – | – | 2 | 0.6 | 3.6 | 121
3 | CC(C)Nc1nc(Cc2ccccc2)cc2c1CCNCC2 | 1 | 7.48 | 32 | 12 | – | – | –
4 | CNc1nc(Cc2ccccc2)cc2c1CCNCC2 | 0.4 | 5.83 | 69 | 8 | 2.5 | 2.8 | –

More lines, in order of rising pEC50 [2], values ahead:

Row | logD [1] | pEC50 [2] | Emax [3] [%] | Papp [4] [×10⁻⁶ cm/s] | Papp A→B [5] [×10⁻⁶ cm/s] | efflux ratio [6] | Kb [7] [nM] | SMILES
5 | 0.6 | 7.52 | 38 | 8 | 2.1 | 2.2 | – | CN(C)c1nc(Cc2ccccc2)cc2c1CCNCC2
6 | 1 | 7.57 | 38 | 4 | 1.5 | 3.5 | – | CCCNc1nc(Cc2ccccc2)cc2c1CCNCC2
7 | 0.5 | 7.57 | 53 | 18 | 3.9 | 1.5 | – | c1ccc(Cc2cc3c(cn2)CCNCC3)cc1
8 | 1.2 | 7.66 | 51 | 2 | 0.8 | 6.1 | – | c1ccc(Cc2cc3c(c(NCC4CC4)n2)CCNCC3)cc1
9 | 0.6 | 7.74 | 28 | 7 | 1.8 | 2.3 | – | CCNc1nc(Cc2ccccc2)cc2c1CCNCC2
